Data set [1] deals with T1, SULT2A1 (Homo sapiens, UniProt Q06520).
T1 sequence (Q06520 1-285): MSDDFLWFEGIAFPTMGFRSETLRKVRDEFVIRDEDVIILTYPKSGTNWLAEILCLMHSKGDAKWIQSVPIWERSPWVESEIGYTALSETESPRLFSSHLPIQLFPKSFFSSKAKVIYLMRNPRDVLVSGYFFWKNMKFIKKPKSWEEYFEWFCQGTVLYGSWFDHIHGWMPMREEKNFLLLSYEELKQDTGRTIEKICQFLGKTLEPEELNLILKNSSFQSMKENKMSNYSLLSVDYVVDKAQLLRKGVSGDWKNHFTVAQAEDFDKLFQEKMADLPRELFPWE
The experiment in a line: Presteady state.

For data set [2], the target named is T1, SULT2A1. The experiment in a line: Equilibrium ligand binding monitored by intrinsic enzyme fluorescence.
The conditions of data set [3]: cited from earlier work.
Data set [4] concerns the target T1, SULT2A1. Nature of the data set: Initial-rate kinetics of raloxifene and DHEA sulfation. The note with it: for Kia: co-substrate extrapolated to zero; for Km: 25 °C, pH 7.4, sequential Bi-Bi fit.
Data set [5] addresses T1, SULT2A1. The note with it: read-out: typical Km; cited from earlier work.

“And” between values parts separate entries of the source, which are not always exact repeats. Identical values can stand only once. Like-named read-outs stand apart in the source and are kept apart here. Some results are limits rather than exact numbers.

For the compound `C[C@]12CC[C@H](O)CC1=CC[C@@H]1[C@@H]2CC[C@]2(C)C(=O)CC[C@@H]12` [DHEA, 5-dehydroepiandrosterone], the Kd worked out at 1100 nM at SULT2A1 [1]; 1000 nM on SULT2A1 [2] (Kd, enzyme species E· (unliganded)); 1100 nM on SULT2A1 [2] (Kd, enzyme species PAP·E·, global fit of titrations at five PAP concentrations). Besides, the koff on SULT2A1 [1] (enzyme species E· (unliganded)) was 2.1 s⁻¹; at SULT2A1 [1] (enzyme species PAPS·E·), 3 s⁻¹. In addition, on SULT2A1 [2] (global fit, five PAP concentrations), the “synergy between PAP and acceptor” value is 1.1 (± 0.2). In data set [3], the sulfated in-vivo is on record as over 99%. Further, the “kcat/Km relative to raloxifene” value at SULT2A1 [4] (DHEA vs raloxifene) came to 135 fold. Besides, the Kia on SULT2A1 [4] (DHEA/PAPS substrate pair) is 1.8 (0.1) μM. Moreover, the “positive synergy in the interaction with PAPS” value at SULT2A1 [4] (from kinetic constants) came out at 1.4 fold.

Regarding `Nc1ncnc2c1ncn2[C@@H]1O[C@H](COP(=O)(O)O)[C@@H](OP(=O)(O)O)[C@H]1O` [PAP, 3′, 5′-diphosphoadenosine], the Kd at SULT2A1 [2] (Kd, enzyme species DHEA·E·) came out at 210 nM; on SULT2A1 [2] (Kd, enzyme species Ral·E·) it was 6000 nM.

On to `Nc1ncnc2c1ncn2[C@@H]1O[C@H](COP(=O)(O)OS(=O)(=O)O)[C@@H](OP(=O)(O)O)[C@H]1O` [PAPS, 3′-phosphoadenosine 5′-phosphosulfate], for which the Km at SULT2A1 [5] is about 0.3 µM; at SULT2A1 [4] (DHEA/PAPS substrate pair) it was 0.39 µM; on SULT2A1 [4] (RAL/PAPS substrate pair), 5.9 µM. Also, the koff was 2.1 s^−1 and 1.9 (0.2) s^−1 at SULT2A1 [1] (enzyme species DHEA·E·); 2.1 s^−1 and 2.3 (0.3) s^−1 at SULT2A1 [1] (enzyme species E· (unliganded)); 50 (2) s^−1 at SULT2A1 [1] (enzyme species RAL·E·, raloxifene 50 μM). Further, the “faster escape from PAPS·E·raloxifene than from PAPS·E and PAPS·E·DHEA” value at SULT2A1 [1] (off-rate constants) is 24 fold. Besides, the “weakening in PAPS affinity with raloxifene bound” value at SULT2A1 [1] (raloxifene prevents gate closure) was found to be 21 fold. Moreover, the Kd was determined as 240 nM on SULT2A1 [1] (read-out: Kd (koff/kon), enzyme species DHEA·E·); 270 nM at SULT2A1 [1] (read-out: Kd (koff/kon), enzyme species E· (unliganded)); 6000 nM at SULT2A1 [1] (read-out: Kd (koff/kon), enzyme species RAL·E·, raloxifene 50 μM); 280 nM at SULT2A1 [2] (enzyme species E· (unliganded)). Also, the figures for the kcat on SULT2A1 [4] (DHEA/PAPS substrate pair) and on SULT2A1 [4] (RAL/PAPS substrate pair) were 0.7 (0.03) sec^−1 and 0.10 (0.01) sec^−1, respectively. Moreover, the Kia on SULT2A1 [4] (DHEA/PAPS substrate pair) is reported as 0.47 (0.06) μM; at SULT2A1 [4] (RAL/PAPS substrate pair), 0.24 (0.04) μM.

As usually defined, the Km is the substrate concentration at which the rate is half of its maximum.

The record behind these values is publication PMC3448010 (Biochemistry, 2012).
